Measured values from PubChem BioAssay (NCI).
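Each compound was tested at five concentrations against cells in 96-well plates for 48 hours. Here, GI50 denotes the concentration required for 50% inhibition of growth. The concentration for full growth arrest is given as TGI.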

How the values were obtained:
Test in all cases: inhibition of tumour cell growth, NCI panel, 48 h
TK-10 renal = system: TK-10 renal
SK-MEL-2 melanoma = system: SK-MEL-2 melanoma
OVCAR-4 ovarian = system: OVCAR-4 ovarian
MOLT-4 leukemia = system: MOLT-4 leukemia
T-47D breast = system: T-47D breast
MALME-3M melanoma = system: MALME-3M melanoma
U251 CNS = system: U251 CNS
UACC-257 melanoma = system: UACC-257 melanoma
IGROV1 ovarian = system: IGROV1 ovarian
OVCAR-5 ovarian = system: OVCAR-5 ovarian
LOX IMVI melanoma = system: LOX IMVI melanoma
ACHN renal = system: ACHN renal
HOP-62 NSCLC = system: HOP-62 NSCLC
RXF 393 renal = system: RXF 393 renal
SK-OV-3 ovarian = system: SK-OV-3 ovarian
M14 melanoma = system: M14 melanoma
A498 renal = system: A498 renal
K-562 leukemia = system: K-562 leukemia
A549 NSCLC = system: A549 NSCLC
SF-295 CNS = system: SF-295 CNS
SK-MEL-28 melanoma = system: SK-MEL-28 melanoma
SW-620 colon = system: SW-620 colon
HCC-2998 colon = system: HCC-2998 colon
SF-539 CNS = system: SF-539 CNS
BT-549 breast = system: BT-549 breast
SR leukemia = system: SR leukemia
OVCAR-3 ovarian = system: OVCAR-3 ovarian
HCT-15 colon = system: HCT-15 colon
HL-60(TB) leukemia = system: HL-60(TB) leukemia
MCF7 breast = system: MCF7 breast
COLO 205 colon = system: COLO 205 colon
NCI-H522 lung = system: NCI-H522 lung
KM12 colon = system: KM12 colon
SNB-19 CNS = system: SNB-19 CNS
NCI-H23 lung = system: NCI-H23 lung
SNB-75 CNS = system: SNB-75 CNS
NCI-H226 lung = system: NCI-H226 lung
OVCAR-8 ovarian = system: OVCAR-8 ovarian
UACC-62 melanoma = system: UACC-62 melanoma
SF-268 CNS = system: SF-268 CNS
DU-145 prostate = system: DU-145 prostate
UO-31 renal = system: UO-31 renal
SN12C renal = system: SN12C renal
NCI-H460 lung = system: NCI-H460 lung
HCT-116 colon = system: HCT-116 colon
SK-MEL-5 melanoma = system: SK-MEL-5 melanoma
EKVX NSCLC = system: EKVX NSCLC
MDA-MB-435 = system: MDA-MB-435
HT29 colon = system: HT29 colon
MDA-MB-231 breast = system: MDA-MB-231 breast
NCI/ADR-RES ovarian = system: NCI/ADR-RES ovarian
PC-3 prostate = system: PC-3 prostate
786-0 renal = system: 786-0 renal

Work on `COCC(=O)Oc1cc(-c2ccc(C)cc2C)c(OC(=O)COC)c(-c2ccc(C)cc2C)c1` yielded a GI50 (TK-10 renal) of 20.4 µM, a TGI (TK-10 renal) greater than 100 µM and a GI50 (SK-MEL-2 melanoma) of 14.7 µM. The TGI (SK-MEL-2 melanoma) was 33.9 µM, the GI50 (OVCAR-4 ovarian) was 3.33 µM and the TGI (OVCAR-4 ovarian) was 23.6 µM. For the same molecule, the GI50 (MOLT-4 leukemia) was 2.96 µM, the TGI (MOLT-4 leukemia) was greater than 100 µM and the GI50 (T-47D breast) was 4.52 µM. It also gave a TGI (T-47D breast) of 54.9 µM, a GI50 (MALME-3M melanoma) of 9.2 µM and a TGI (MALME-3M melanoma) of 25.5 µM. The GI50 (U251 CNS) was 2.02 µM, the TGI (U251 CNS) was 23 µM and the GI50 (UACC-257 melanoma) was 8.23 µM. It also gave a TGI (UACC-257 melanoma) of 35.9 µM, a GI50 (IGROV1 ovarian) of 5.56 µM and a TGI (IGROV1 ovarian) of 25.3 µM. For the same molecule, the GI50 (OVCAR-5 ovarian) was 21.7 µM, the TGI (OVCAR-5 ovarian) was 61 µM and the GI50 (LOX IMVI melanoma) was 1.12 µM. It also gave a TGI (LOX IMVI melanoma) of 15.5 µM, a GI50 (ACHN renal) of 9.07 µM and a TGI (ACHN renal) greater than 100 µM. For the same molecule, the GI50 (HOP-62 NSCLC) was 11.7 µM, the TGI (HOP-62 NSCLC) was 28.1 µM and the GI50 (RXF 393 renal) was 11.2 µM. The TGI (RXF 393 renal) was 46.1 µM, the GI50 (SK-OV-3 ovarian) was 13.2 µM and the TGI (SK-OV-3 ovarian) was 61.5 µM. The GI50 (M14 melanoma) was 7.69 µM, the TGI (M14 melanoma) was 21.6 µM and the GI50 (A498 renal) was 5.57 µM. It also gave a TGI (A498 renal) of 19.9 µM, a GI50 (K-562 leukemia) of 3.56 µM and a TGI (K-562 leukemia) greater than 100 µM. It also gave a GI50 (A549 NSCLC) of 4.73 µM, a TGI (A549 NSCLC) of 29.1 µM and a GI50 (SF-295 CNS) of 5.58 µM. For the same molecule, the TGI (SF-295 CNS) was 29.6 µM, the GI50 (SK-MEL-28 melanoma) was 11.2 µM and the TGI (SK-MEL-28 melanoma) was 23.6 µM. It also gave a GI50 (SW-620 colon) of 5.09 µM, a TGI (SW-620 colon) of 18.3 µM and a GI50 (HCC-2998 colon) of 13.5 µM. It also gave a TGI (HCC-2998 colon) of 28.9 µM, a GI50 (SF-539 CNS) of 12 µM and a TGI (SF-539 CNS) of 28.8 µM. For the same molecule, the GI50 (BT-549 breast) was 7.7 µM, the TGI (BT-549 breast) was 22.9 µM and the GI50 (SR leukemia) was 1.59 µM. It also gave a TGI (SR leukemia) greater than 100 µM, a GI50 (OVCAR-3 ovarian) of 3.64 µM and a TGI (OVCAR-3 ovarian) of 16.5 µM. The GI50 (HCT-15 colon) was 0.58 µM, the TGI (HCT-15 colon) was greater than 100 µM and the GI50 (HL-60(TB) leukemia) was 2.21 µM. For the same molecule, the TGI (HL-60(TB) leukemia) was 77.4 µM, the GI50 (MCF7 breast) was 4.75 µM and the TGI (MCF7 breast) was 51.4 µM. The GI50 (COLO 205 colon) was 8.76 µM, the TGI (COLO 205 colon) was 23.8 µM and the GI50 (NCI-H522 lung) was 4.07 µM. The TGI (NCI-H522 lung) was 18.3 µM, the GI50 (KM12 colon) was 4.45 µM and the TGI (KM12 colon) was 19.5 µM. The GI50 (SNB-19 CNS) was 11.9 µM, the TGI (SNB-19 CNS) was 43.6 µM and the GI50 (NCI-H23 lung) was 5.61 µM. It also gave a TGI (NCI-H23 lung) of 23.4 µM, a GI50 (SNB-75 CNS) of 3.22 µM and a TGI (SNB-75 CNS) of 20.4 µM. For the same molecule, the GI50 (NCI-H226 lung) was 8.59 µM, the TGI (NCI-H226 lung) was 46.9 µM and the GI50 (OVCAR-8 ovarian) was 4.51 µM. The TGI (OVCAR-8 ovarian) was 90.3 µM, the GI50 (UACC-62 melanoma) was 3.43 µM and the TGI (UACC-62 melanoma) was 31.9 µM. It also gave a GI50 (SF-268 CNS) of 3.91 µM, a TGI (SF-268 CNS) of 23.9 µM and a GI50 (DU-145 prostate) of 10.3 µM. It also gave a TGI (DU-145 prostate) of 30.2 µM, a GI50 (UO-31 renal) of 2.47 µM and a TGI (UO-31 renal) of 15.5 µM. It also gave a GI50 (SN12C renal) of 9.11 µM, a TGI (SN12C renal) of 28.7 µM and a GI50 (NCI-H460 lung) of 0.592 µM. The TGI (NCI-H460 lung) was 13.7 µM, the GI50 (HCT-116 colon) was 0.797 µM and the TGI (HCT-116 colon) was 14.4 µM. The GI50 (SK-MEL-5 melanoma) was 2.04 µM, the TGI (SK-MEL-5 melanoma) was 15.7 µM and the GI50 (EKVX NSCLC) was 4.36 µM. The TGI (EKVX NSCLC) was 58.9 µM, the GI50 (MDA-MB-435) was 6.62 µM and the TGI (MDA-MB-435) was 30.2 µM. It also gave a GI50 (HT29 colon) of 4.02 µM, a TGI (HT29 colon) of 21.8 µM and a GI50 (MDA-MB-231 breast) of 6.03 µM. It also gave a TGI (MDA-MB-231 breast) of 26.5 µM, a GI50 (NCI/ADR-RES ovarian) of 5.84 µM and a TGI (NCI/ADR-RES ovarian) of 55.3 µM. It also gave a GI50 (PC-3 prostate) of 0.824 µM, a TGI (PC-3 prostate) of 35.1 µM and a GI50 (786-0 renal) of 10.7 µM. It also gave a TGI (786-0 renal) of 48.3 µM.
